Measured values taken from patent US9266933B2, “Polypeptides inhibiting neovascularization and uses thereof” (SHANGHAI FIRST PEOPLE'S HOSPITAL, priority 2011, dated 2016).
“Also recorded” adds a separate entry of the source.

Assays:
mouse cornea = experiment: Mouse corneal stroma micropocket model of VEGF-induced pathological angiogenesis; type: in vivo, C57BL/6 mice; conditions: VEGF + ZY3 low (0.5 μg/granule) and high (2 μg/granule) concentration, 5 days after operation, compared with VEGF group; **P<0.01
Protocol: Mice model of the corneal stroma micropocket was used and the methods were as follows:
Male C57BL/6 mice (4-5 week old) were intraperitoneally injected with 2% pentobarbital (about 0.1 ml/mouse) for anesthesia. 4% hydrochloric oxybuprocaine ophthalmic solution was locally administrated. Under the stereo microscope, OT syringe needle and 2 ml syringe needle were used to perform a blunt dissection between the layers of corneal stroma at 0.8-1 mm from corneoscleral limbus. A pouch of about 0.6×0.8 mm was formed. […] Neovascularization area were calculated as followed: Area (mm^2)=0.5*3.14*VL (mm)*CN*0.4 (mm) SPSS1L 0.1 was used for statistical analysis.

[1] = tested on: chick embryo chorioallantoic membrane; experiment: Angiogenesis in chick embryo chorioallantoic membrane model; type: in vivo; conditions: low (10 μg/piece) and high (50 μg/piece) concentration on filter paper, 2 days, compared with PBS group; **P<0.01
Protocol: Model of chick embryo chorioallantoic membrane was used and the methods were as follows:
Upon sterilization, the chick fertile eggs of 1-2 days old (purchased from 36 Lianhuaqing Chicken Farm of Shanghai Xinghuo Farm) were placed into a thermhygrostat (purchased from Shanghai Boxun industrial Co., ltd. SPX-250C) (T=37° C., Humidity H=60-70%) to incubate for 5 days. Every day, the eggs were overturned for one time at morning and night. Onto the filter paper (Whatman quantitative filter papers, Sigma, ashless, Grade 42, Cat No 1442-042, 42.5 mm Φ×100 circles) containing cortisone acetate (5 μg/μl, 5 μl/piece), PBS (5 μl/piece), low (2 μg/μl) or high (10 μg/μl) concentration of small peptides ZY3 (5 μl/piece) were dropped respectively. After air-dried, the filter paper was placed between the major vessels on chorioallantoic membrane of fertile eggs and the eggs were sealed. The eggs were placed in the thermhygrostat (T=37° C., Humidity H=60-70%) to incubate for another 2 days (24 hours a day) without overturning. Then the chorioallantoic membrane was thoroughly exposed and photographed (the range was within 5 mm around the filter paper). The number of 3-5 subordinate microvessels in the area within 2.5 mm around the filter paper was counted. SPSS11.0.1 was used for statistical analysis.

[2] = tested on: Human Umbilical Vein Endothelial Cells (HUVECs); experiment: Matrigel lumen formation assay of HUVECs; type: cell-based; conditions: VEGF + ZY3 in different concentrations (incl. 160 μM), 6 hours, compared with VEGF group; concentration-dependent; *P<0.05
Protocol: The Matrigel method was used as follows:
A 50 μl/well Matrigel (purchased from BD Co.) was added into a 96-well plate, and then the plate was incubated at 37° C. for 30 min. Upon solidification, the primary HUVECs were inoculated onto the surface of Matrigel with an inoculation concentration of 8×10^6/ml. Then the serum-free culture medium ECM as negative control, VEGF (100 ng/ml) (purchased from Sigma Co.) as positive control, VEGF (100 ng/well)+small peptide ZY3 in different concentrations as treatment groups were added in each well. The plate wad incubated at 37° C. After treating for 6 hours, photos were taken for cells in 3 randomized fields in the plate under the microscope (×200 fold.), and the sum of the maximum lumina diameter formed in the cells was calculated. Finally, SPSS11.0.1 was used for statistical analysis.

[3] = tested on: Human Umbilical Vein Endothelial Cells (HUVECs); experiment: MTS proliferation assay of VEGF-stimulated HUVECs; type: cell-based; conditions: VEGF + ZY3 in different concentrations, 24-hour incubation, compared with VEGF group; concentration-dependent; *P<0.05, **P<0.01
Protocol: The MTS method was used as follows:
Primary Human Umbilical Vein Endothelial Cells (HUVECs) (purchased from ScienCell Co.) were inoculated into a 96-well plate with an inoculation concentration of 2×10^4/ml. After cells had adhered to the wall, serum-free culture medium ECM was added and the cells were cultivated at 37° C. for 24 hours. Then the serum-free culture medium ECM as negative control, VEGF (100 ng/ml) (purchased from Sigma Co.) as positive control, VEGF (100 ng/well)+small peptide ZY3 in different concentrations as treatment groups were added in each well. After a 24-hour incubation, 20 μl 1 MTS solution (purchased from Promega Corporation) was added in each well. After incubation at 37° C. for 4 hours, the absorbance in each well was measured at 490 nm by using microplate reader (Bio-Rad Co.). The proliferation activity of cells was determined according to OD490. Finally, SPSS11.0.1 was used for statistical analysis.
Derived Polypeptides were prepared as follows, and the inhibition effect of each ZY3 derived polypeptides on proliferation of Human Umbilical Vein Endothelial Cells HUVECs was determined according to the methods in Example 3.

TANVTMQLLKIRSGDRPSYVELTFSQH (angiogenesis-inhibiting peptide ZY3)
corneal angiogenesis (neovascularization area on mouse cornea) (mouse cornea): significantly inhibited
angiogenesis of chick embryo chorioallantoic membrane (count of 3-5 subordinate microvessels within 2.5 mm around the filter paper) [1]: significant inhabitation effects; also recorded: significantly inhibited
lumen formation of HUVECs (sum of maximum lumina diameter) [2]: significantly inhibited
proliferation of HUVECs (OD490, MTS) [3]: significantly inhibited
